Experimental data reported in PubChem BioAssay AID179 (DTP/NCI, 2004).
pEC50, pIC50: −log10 of the molar value. Activity calls are given as the source filed them.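 The calls were made as follows: active = compounds giving half or more protection of infected cells from virus-caused growth loss, again on retest; inactive = the rest.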

Tested on: CEM cells HIV-1 protection, formazan growth assay
Test: NCI AIDS Antiviral Assay
Details: for pIC50: measured here: growth of uninfected CEM cells
How it was run: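 Human CEM cells, uninfected and HIV-1-infected, exposed to five drug concentrations; growth measured by soluble formazan assay and scored as percent protection from infection, with protecting compounds retested.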

| SMILES | pEC50 | pIC50 | outcome |
| --- | --- | --- | --- |
| O=C(O)c1cccc(OCCOc2cccc(C(=O)O)c2[N+](=O)[O-])c1[N+](=O)[O-] | < 3.70 | < 3.70 | – |
| CCC(=O)NC1=CC(=O)C(=O)c2cccnc21 | – | – | inactive |
| COC(=O)[C@@H]1c2[nH]c3ccccc3c2C[C@@H]2c3ccccc3NC(=O)[C@@H]21 | < 4.37 | < 4.37 | – |
| Cc1ccc(Oc2ccc([N+](=O)[O-])cc2[N+](=O)[O-])c(C)c1 | – | – | inactive |
| CC(C)(S)C(N)C(=O)O (stereo not given) | < 2.78 | < 2.78 | – |
| NC12c3c4cccc3Oc3cccc(c31)Oc1cccc(c12)O4 | < 4.30 | 4.54 | – |
| CN1CCCCC(C(O)(c2ccccc2)c2ccccc2)C1=O (stereo not given) | < 3.94 | 6.44 | – |
| CN(C)CCN(C(=Nc1ccccc1)N1CCCC1)c1ccccc1 | < 3.70 | 5.08 | – |
| C#CCNC(=O)NC(CCCCNC(=O)OCc1ccccc1)C(=O)OCc1ccccc1 (stereo not given) | < 4.24 | 4.37 | – |
| N#C/C(=C\N1CC(=O)NC1=S)C(N)=O | < 3.70 | < 3.70 | – |
| CN1CC(C(=O)C2C(=O)c3ccccc3C2=O)C(=O)C(=O)C(C(=O)C2C(=O)c3ccccc3C2=O)C1 (stereo not given) | – | – | inactive |
| CCc1c(O)c(O)c(C(C)=O)c2c(O)c(-c3c(C)cc4c(CC)c(O)c(O)c(C(C)=O)c4c3O)c(C)cc12 | < 4.16 | 5.65 | – |
| CCOC(=O)c1ccc(Nc2cnc3cc(C(F)(F)F)ccc3n2)cc1 | < 3.70 | 3.85 | – |
| N#C/C(=C/n1c(=S)[nH]c2ccccc21)C(N)=O | < 3.70 | < 3.70 | – |
| Cc1ccc(/C=N/Nc2ccccn2)s1 | < 3.70 | < 3.70 | – |
| CCOC(=O)c1ccc(N2C(=O)/C(=C\OC)c3ccccc3C2=O)cc1 | – | – | inactive |
| O=[C]=[Fe+].O=[C]=[Fe].[C-]1=CCC=C1.[CH-]=O.[CH-]=O.c1cc[cH-]c1 | < 3.70 | 4.67 | – |
| COc1cc2c3c(c1)[nH]c(=S)n3C(=O)CS2 | < 4.54 | < 4.54 | – |
| CC(C)(C)N1C[C@H](C(=O)c2ccccc2)[C@@H]1c1ccccc1 | < 4.47 | < 4.47 | – |
| CC1(C)N=C(N)N=C(N)N1c1cccc(N)c1.[Sn] | – | – | inactive |
| O=C(O)/C(Cl)=C(\Cl)C(=O)c1ccccc1 | < 2.99 | < 2.99 | – |
| Cc1cc(O)c(/C=N/C(=S)Nc2cc(Cl)ccc2Cl)c(=O)o1 | < 4.30 | < 4.30 | – |
| CC1(C)C(=O)C2(N)CCC1C2 (stereo not given) | < 3.70 | < 3.70 | – |

| SMILES | pEC50 | pIC50 | outcome |
| --- | --- | --- | --- |
| CC(=O)N1C=Cc2c(c(C)c3c([nH]c4ccccc43)c2C)C1 | < 3.70 | 6.80 | – |
| ClCc1c(-c2ccccc2)nn(-c2ccccc2)c1CCl | < 3.70 | 5.21 | – |
| CN(C)CCC(/C=C/c1ccccc1)=N\Nc1ccc(Cl)c(Cl)c1 | – | – | inactive |
| CN1C(=O)Cn2c(n[nH]c(=O)c2=O)-c2cc(Cl)ccc21 | < 3.52 | < 3.52 | – |
| Cc1cc2c3ccccc3nc2c2cc[nH]c(C)c12 | < 3.96 | 5.28 | – |
| [Cl][Pt+2][Cl].[NH-]C1CCCC1[NH-] (stereo not given) | < 3.70 | 4.31 | – |
| COc1ccc(/C=C2\Sc3scc(-c4ccc([N+](=O)[O-])cc4)[n+]3C2=O)cc1OC | < 3.70 | 4.80 | – |
| CC1(C)C(c2ccccc2)=NN(O)c2ccccc21 | – | – | inactive |
| NC(=O)N/N=C(\CC1OC(=O)c2ccccc21)c1ccco1 (stereo not given) | < 3.08 | < 3.08 | – |
| Cc1cccc(N=Nc2c(C)nn(C(=O)c3ccc(O)cc3)c2C)c1 | – | – | inactive |
| COC1=C2C[C@@H](C)C[C@@H](OC)[C@@H](O)[C@H](C)/C=C(\C)[C@@H](OC(N)=O)[C@H](OC)/C=C\C=C(/C)C(=O)NC(=CC1=O)C2=O | < 5.94 | 7.09 | – |
| COc1ccc(N[C@H]([C@@H](c2ccccc2)S(=O)c2ccc(C)cc2)C(F)(F)F)cc1 (stereo not given in full) | < 3.70 | 4.46 | – |
| COC(=O)C(Cc1ccccc1)NC(=O)c1ccc(CNC(=S)NCc2cccc(CNC(=S)NCc3ccccc3)c2)cc1 (stereo not given) | < 3.70 | 3.83 | – |
| CC(=O)OCC(OC(C)=O)C(OC(C)=O)C(OC(C)=O)C(OC(C)=O)C(OC(C)=O)c1nc2ccccc2[nH]1 (stereo not given) | < 3.70 | < 3.70 | – |
| Cc1cc(-c2ccc(N=Nc3ccc4c(S(=O)(=O)[O-])cc(S(=O)(=O)[O-])c(N)c4c3O)c(C)c2)ccc1N=Nc1ccc2c(S(=O)(=O)[O-])cc(S(=O)(=O)[O-])c(N)c2c1O.[Ga] | 5.95 | 4.41 | – |
| CCOC(=O)c1cnc2cc3cccccc3n2c1=O | – | – | inactive |
| C1CSCCCSCCCSCCCSCCCSC1 | < 4.85 | < 4.85 | – |
| CCOP(=O)(OCC)/C(C#N)=C/c1cccs1 | 4.11 | 3.14 | – |
| CC1=NN(c2nc(N)nc(C/C(N)=N/O)n2)C(C)(C)C1 | < 3.70 | < 3.70 | – |
| O=C(O)CSc1n[nH]c(-c2ccc(O)cc2)n1 | < 3.00 | 3.01 | – |
| CCOC(=O)Nc1nc2c(s1)c([N+](=O)[O-])cn2C | < 4.16 | 4.56 | – |
| Cc1cn(C2CC(ONC(N)=O)C(CO[Si](C)(C)C(C)(C)C)O2)c(=O)[nH]c1=O (stereo not given) | < 3.70 | 3.98 | – |
| CCOC(=O)C1C2CCC(C2=C(c2ccccc2)c2ccccc2)C1C(=O)O (stereo not given) | < 3.63 | 3.99 | – |

| SMILES | pEC50 | pIC50 | outcome |
| --- | --- | --- | --- |
| COC(=O)c1c(C#N)c(N)nc2c1CCC2 | < 3.70 | < 3.70 | – |
| CC(C)(C)[Si](C)(C)OC1/C(=C/C#N)C(n2ccc(=O)[nH]c2=O)OC1CO (stereo not given) | < 3.70 | < 3.70 | – |
| CCOC(=O)C1CCc2c1c(C#N)c1[nH]c3ccccc3n1c2=O (stereo not given) | < 3.63 | < 3.63 | – |
| NC(=O)C(c1ccccc1)N1CCCCC1 (stereo not given) | – | – | inactive |
| CC(C)OP(=O)(OC(C)C)C(C)(C)O | < 3.70 | < 3.70 | – |
| Clc1cccc(C2N3CCCCC3[C@@H]3c4[nH]c5ccccc5c4CCN23)c1 (stereo not given in full) | < 4.86 | < 4.86 | – |
| CN(C)c1ccc(C2SCC(=O)N2c2ccc(Oc3ccc(Cl)cc3)c(Cl)c2)cc1 (stereo not given) | < 3.70 | 4.53 | – |
| Cc1ccc(O)c(N=O)c1.[Cu+2] | < 3.70 | 5.58 | – |
| CCOP(=O)(OCC)C(Nc1ccc(F)cc1)c1cccc([N+](=O)[O-])c1 (stereo not given) | < 3.70 | 4.26 | – |
| CCCCCCCCSc1ncnc2[nH]ncc12 | < 4.10 | 5.07 | – |
| COC(=O)CCC1CCc2c(OC)ccc(O)c2C1=O (stereo not given) | – | – | inactive |
| Nc1n[n+]([O-])c2ccc(Cl)cc2[n+]1[O-] | < 3.70 | 5.45 | – |
| Cc1ccc(-n2c(C)n[nH]c2=O)cc1 | < 3.70 | < 3.70 | – |
| CC(=O)C(=Cc1cccc([N+](=O)[O-])c1)C(C)=O | < 3.81 | 4.69 | – |
| COC1(OC)CC(CO)(CNc2nc(N)nc(Cl)c2/C=N\O)C1 | < 3.70 | 5.57 | – |
| CC(=C(C(N)=O)C(N)=O)C1C=C(c2cccs2)CC(c2ccc(Cl)cc2)=C1O (stereo not given) | < 3.70 | < 4.00 | – |
| O=C(NNC(=O)c1cccc(C(=O)NNC(=O)c2ccc(Cl)c(Cl)c2)n1)c1ccc(Cl)c(Cl)c1 | < 3.70 | 5.97 | – |
| NCCCCCCNS(=O)(=O)c1cccc2c(Cl)cccc12 | < 3.70 | 4.87 | – |
| O=C1Nc2noc(=O)nc2NO1 | < 3.70 | < 3.70 | – |
| COC(=O)[C@@H]1C[C@]2(Br)c3ccccc3N(S(=O)(=O)c3ccccc3)[C@@H]2N1C(=O)OC | < 3.70 | 3.86 | – |
| CN(C)C(n1cc2c(c1)-c1ccc(Cl)cc1C(c1ccccc1F)=NC2)n1cc2c(c1)-c1ccc(Cl)cc1C(c1ccccc1F)=NC2 | < 4.00 | 4.02 | – |
| N#Cc1nc(CSCc2ccccc2)oc1N | < 3.70 | 3.93 | – |
| COc1ccc2nc3c([N+](=O)[O-])ccc(NCCN(C)C)c3c(NCCN(C)C)c2c1 | < 3.70 | 5.97 | – |

| SMILES | pEC50 | pIC50 | outcome |
| --- | --- | --- | --- |
| [Pt].c1ccc([PH+](c2ccccc2)c2ccccc2)cc1.c1ccc([PH+](c2ccccc2)c2ccccc2)cc1.c1ccc([PH+](c2ccccc2)c2ccccc2)cc1.c1ccc([PH+](c2ccccc2)c2ccccc2)cc1 | < 4.96 | < 4.96 | – |
| Nc1c[nH][nH]c(=S)c1=S | < 3.70 | 5.44 | – |
| CCC(CC)C(=O)NCC(=O)NO | < 3.70 | < 3.70 | – |
| CN1c2ccccc2C(=O)NC12CCN(CC1COc3ccccc3O1)CC2 (stereo not given) | < 3.70 | 4.05 | – |
| Cc1ccc(NC(=S)/N=C/c2c(O)[nH]c(=O)[nH]c2=O)c(C)c1 | < 3.70 | 3.82 | – |
| CC(=O)Nc1ccc(NS(=O)(=O)c2ccc3nc(C)n(NS(=O)(=O)c4ccc(NC(C)=O)cc4)c(=O)c3c2)cc1 | < 3.70 | < 3.70 | – |
| Cc1[nH]c(=O)[nH]c(=O)c1Cl | – | – | inactive |
| COc1ccc2c(n1)Sc1nc3ccccc3nc1N2 | < 3.70 | 4.61 | – |
| O=c1[nH]c(=O)n(C2CC(O)C(CO)O2)cc1/C=C/Br (stereo not given) | < 3.12 | 3.13 | – |
| N#C/C(=C1\SC(=O)CN1c1ccc(Cl)cc1)c1nc2ccccc2o1 | < 3.70 | 4.46 | – |
| O=C(NNCc1ccccc1O)c1ccccc1O | < 3.70 | 5.54 | – |
| COC(OC)c1cc2c(cc1C(=O)[C@@]13CCC[C@@H]1NC(=O)O3)OCO2 | – | – | inactive |
| C/C(=C1/N=C(c2cc([N+](=O)[O-])ccc2Cl)N(c2cccc(C)c2)C1=O)c1cc2ccccc2oc1=O | < 5.12 | < 5.12 | – |
| O=C1C(=Cc2cccc(Br)c2)C(=O)c2ccccc21 | 4.81 | 4.64 | – |
| N#CCc1nc(-c2cc3c(ccc4ccccc43)oc2=O)cs1 | < 3.70 | 3.75 | – |
| O=C(Oc1cc(=O)c(OC(=O)c2ccccc2)co1)c1ccccc1 | < 3.70 | 3.96 | – |
| Cc1nc2c(s/c(=N\N)n2-c2ccccc2)c(=O)[nH]1 | < 4.44 | < 4.44 | – |
| Brc1ccc(C=NC23CC4CC(CC(C4)C2)C3)cc1 | < 4.25 | < 4.25 | – |
| CC(C)(NO)/C(=N\O)c1ccco1 | < 3.70 | < 3.70 | – |
| CN(C)C(C(N)=O)c1ccccc1 (stereo not given) | < 3.70 | < 3.70 | – |
